In patent US20100068150A1, “Selective Caspase Inhibitors” (The Board of Trustees of the Leland Stanford Junior …, priority 2006, published 2010):

Tests used:
cathepsin B and legumain = experiment: In vivo labeling of cathepsin B and legumain in kidney and spleen of normal mice; conditions: intravenous, tissues collected 2 hrs after injection
Procedure: The present selective caspase inhibitors may be used for in vivo imaging. Cy5-fluorescent labeled versions of AB46 and AB50 were injected into normal mice and labeling of cathepsins and legumain in kidney and spleen was monitored (FIG. 14).
Normal mice were intravenously injected with the probes and tissues were collected 2 hrs after injection. Tissues were homogenized and total protein samples were analyzed by SDS-PAGE followed by scanning of the gel using a fluorescent scanner.

caspase-3 = target: T1, caspase-3 (Mus musculus, UniProt P70677); experiment: In vivo labeling of caspase-3 in the thymus of dexamethazone treated mice; conditions: dexamethazone 40 mg/kg IP, probe by tail vein after 12 or 24 hrs, 3 hrs circulation
T1 construct: from tissue; host or cells: thymus of Balb-c mice
T1 sequence (P70677 29-175 limits assumed): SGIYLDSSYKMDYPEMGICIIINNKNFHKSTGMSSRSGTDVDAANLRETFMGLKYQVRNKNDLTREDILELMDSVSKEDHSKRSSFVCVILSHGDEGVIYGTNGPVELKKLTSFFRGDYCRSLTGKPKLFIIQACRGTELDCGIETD
T1 sequence (P70677 176-277 limits assumed): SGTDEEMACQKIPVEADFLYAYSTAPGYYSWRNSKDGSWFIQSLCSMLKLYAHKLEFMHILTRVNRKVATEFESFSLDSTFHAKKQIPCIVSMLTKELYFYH
From the text: The following example utilizes dexamethazone-induced apoptosis in the thymus. See, Cristina et al., “Dexamethasone-induced apoptosis of thymocytes: role of glucocorticoid receptor-associated Src kinase and caspase-8 activation,” prepublished online as a Blood First Edition Paper on Aug. 29, 2002; DOI 10.1182/blood-2002-06-1779. This is a particularly simple model that allows one to activate apoptosis specifically in the thymus by injection of normal mice with low doses of dexamethazone. […] Also, one can monitor changes in activation of caspases with time after induction of apoptosis.
Wild Type Balb-c mice were injected with dexamethazone (40 mg/kg) by IP injection. After 12 or 24 hrs the general caspase probe AB50 was injected by tail vein and the probe allowed to circulate for 3 hrs, at which time tissues from thymus, lung, liver, and kidney were collected. We removed the thymus, kidney and lung and imaged the whole organs using the IVIS2000 system. The tissues were then analyzed by SDS-PAGE and fluorescent scanning of the gels. For comparison we monitored the levels of cleaved, active caspase-3 using a specific antibody. […] An antibody against actin was used as a loading control.

Cc1cccc(C)c1C(=O)OCC(=O)[C@H](CC(=O)O)NC(=O)C1CCCN1C(=O)[C@@H](CCC(=O)O)NC(=O)Cc1ccc(O)c([N+](=O)[O-])c1 (stereo partly drawn) [AB50, NP-E-P- D-AOMK]
in vivo labeling in kidney and spleen (cathepsin B and legumain): only labeled legumain | in vivo labeling of caspase-3 in thymus (caspase-3): Bands can be clearly seen at the caspase-3 estimated MW
